Assay [1] relates to Mouse cortical cell cultures. Kind of assay: SNP (sodium nitroprusside) cytotoxicity in mixed cortical cell cultures (LDH assay). The class given is cell-based. As to conditions: continuous 5 μM SNP; LDH 24 hr later. Here is the method: Mouse cortical cell cultures (DIV 12-14) were exposed to continuously 5 μM sodium nitroprusside (SNP), alone (●) or with inclusion of 0.1-10 mM aspirin (◯), 1-100 μM trolox (▾), or 0.1-10 μM 2-Hydroxy-TTBA (∇). Neuronal death was analyzed 24 hr later by measuring levels of LDH released into the bathing medium, mean ±SEM (n=9-12 culture wells per condition), scaled to mean LDH efflux value 24 hr after sham wash (=0) and continuous exposure to 500 μM NMDA (=100). *, Significant difference from the vehicle control, p<0.05 using ANOVA and Student-Neuman-Keuls' test.
For mixed neuron-glia culture, mouse cerebral cortices were removed from brains of the 14-16 day-old-fetal mice (E14-16), gently triturated and plated on 24 well plates (2×10^5 cells/plate) precoated with 100 μg/ml poly-D-lysine and 4 μg/ml laminine. Cultures were maintained at 37° C. in a humidified 5% CO2 atmosphere. Plating media consist of Eagles minimal essential media (MEM, Earles salts, supplied glutamine-free) supplemented with 5% horse serum, 5% fetal bovine serum, 26.5 mM bicarbonate, 2 mM glutamine, and 21 mM glucose.
After 7-8 days in vitro (DIV 7-8), 10 μM cytosine arabinofuranoside (Ara-C) was included to halt overgrowth of glia. The drug treatment was carried on DIV 12-15 cortical cell culture. Overall neuronal cell injury was assessed by measuring amount of lactate dehydrogenase (LDH) released into the bathing medium 24 hr after neurotoxic insults as previously described [Koh and Choi, J Neurosci Methods 20:83-90, 1987].
Mixed cortical cell cultures were continuously exposed to 5 μM SNP, a nitric oxide (NO) donor, alone or with inclusion of 0.1-10 μM 2-Hydroxy-TTBA, 1-10 μM trolox or 100-10,000 μM aspirin. Neuronal cell death was analyzed 24 hr later by LDH assay. *, Significant difference from the vehicle control (SNP), p<0.05 using ANOVA and Student-Neuman-Keuls' test.

Assay [2] concerns Sprague-dawley rats, four-vessel occlusion. Nature of the assay: Mitochondrial ROS generation after transient global ischemia (four-vessel occlusion). The class given is in vivo, rat. Particulars: 50 mg/kg i.p. after reperfusion; 10 min four-vessel occlusion; analyzed 2 hr later. The procedure:
Mitotracker CM-H2X ROS was injected into the lateral ventricle of rat brain at 24 hr before ischemic surgery, and then animals received transient forebrain ischemia for 10 min, with intraperitoneal injections of vehicle (control) or 2-Hydroxy-TTBA (50 mg/kg) at 5 min after reperfusion. The levels of mitochondrial ROS were analyzed 2 hr later, mean ±S.E.M. (n=50-70 neurons randomly chosen from the CA1 sector of the hippocampal formation per each condition). *, Significant difference from the vehicle control, p<0.05 using the independent t-test.
Male adult Sprague-dawley rats (250-300 g) were anesthetized with chloral hydrate and subjected to four-vessel occlusion model (occlusion of both common carotid arteries and vertebral arteries) as previously described [Pulsinelli and Brierley, stroke 10: 267-272 (1979)].
Rats received the intracerebroventricular injections of 0.4 nmol Mitotracker CM-H2X Ros. After 24 hr, rats received four-vessel occlusion for 10 min. Immediately after reperfusion, rats received the intraperitoneal injections of saline (control) or 2-Hydroxy-TTBA (50 mg/kg). Levels of mitochondrial ROS were analyzed 2 hr later by measuring the fluorescence intensity of oxidized Mitotracker CM-H2X Ros in mitochondria.

One molecule from US7511074B2, “Tetrafluorobenzyl derivatives and pharmaceutical composition for preventing and treating acute and chronic neurodegenerative diseases in central nervous system containing the same” (AmKor Pharma, Inc., priority 2002, dated 2009) can be followed below.

As to `O=C(O)c1cc(NCc2c(F)c(F)c(C(F)(F)F)c(F)c2F)ccc1O` [2-Hydroxy-TTBA, 2-hydroxy-5-(2,3,5,6-tetrafluoro-4-trifluoromethylbenzylamino)benzoic acid], in assay [1], the “effect on SNP toxicity” value is “completely blocked” and the “strength relative to trolox in preventing NO toxicity” value is on record as 100 fold. Moreover, in assay [2], the “production of mitochondrial ROS after transient global ischemia” value is reported as “reduced production of mitochondrial ROS”.
